Results published in US20240342320A1, “POLYPEPTIDE TARGETING INTEGRIN ALPHA 6 AND USE THEREOF” (GUANGZHOU GENBIONOVA MEDICAL TECHNOLOGY CO., LTD., priority 2021, published 2024).

Columns and labels:
[1] = test system: HCCLM3 subcutaneous tumors with high integrin α6 expression; experiment: Near infrared imaging of HCCLM3 subcutaneous tumor bearing mice; assay type: in vivo; conditions: tail vein, 24 hours
Description: (§1) In the near infrared imaging of small animals, a 2 μl of 1 mM fluorescent probe RWYD-PEG4-K(ICG)-K(NOTA) (structural formula shown in FIG. 1C) was injected into the tail vein of HCCLM3 subcutaneous tumor bearing mice. After 24 hours of internal circulation, the distribution in the subcutaneous tumor bearing mice was observed.

[2] = test system: Hep3B subcutaneous tumors without expression of integrin α6; experiment: Near infrared imaging of Hep3B subcutaneous tumors; assay type: in vivo, mice
[3] = test system: HCCLM3 subcutaneous tumors with high integrin α6 expression; experiment: Near infrared imaging in HCCLM3 subcutaneous tumor bearing mice; assay type: in vivo; conditions: 2 μl of 1 mM, tail vein, 24 hours
Description: as §1

[4] = test system: Hep3B subcutaneous tumors without expression of integrin α6; experiment: Near infrared imaging, Hep3B subcutaneous tumors; assay type: in vivo, mice

Substance | tumor uptake, near infrared imaging [1] | tumor uptake, near infrared imaging [2] | tumor uptake, near infrared imaging [3] | tumor uptake, near infrared imaging [4]
RWYD-PEG4-K(ICG)-K(NOTA) [listing 1 of 2 here] | high taken up | not high taken up |  | 
RWYD-PEG4-K(ICG)-K(NOTA) [listing 2 of 2 here] |  |  | high taken up by HCCLM3 subcutaneous tumors | not high taken up by Hep3B subcutaneous tumors
